Like-named read-outs stand apart in the source and are kept apart here.
What was measured:
[1] = test system: Beet Armyworm (Spodoptera exigua) ("BAW"), second instar larvae; experiment: Bioassay on beet armyworm (BAW), 128-well diet tray assay; type: in vivo; settings: Spodoptera exigua
Outline: (§1)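 Each value represents average percent mortality from eight wells. Larvae were kept in clear-covered trays at 25° C. for five to seven days on a 14-hour light, 10-hour dark schedule before scoring.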

[2] = test system: Cabbage Looper (Trichoplusia ni) ("CL"), second instar larvae; experiment: Bioassay on cabbage looper (CL), 128-well diet tray assay; type: in vivo; settings: Trichoplusia ni
Outline: as §1

[3] = read-out: BAW (Biological Results, rating)
[4] = read-out: CL (Biological Results, rating)

Row | Structure (SMILES) | pest or weed control at 50 µg/cm2 ([1]; read-out: BAW rating) [%] | pest or weed control at 50 µg/cm2 ([2]; read-out: CL rating) [%] | pest or weed control at 50 µg/cm2 [1, 3] [%] | pest or weed control at 50 µg/cm2 [2, 4] [%]
1 | Cc1ccc(COCC(F)(F)F)c(N2C(=O)CS/C2=N\C(=O)Nc2ccc(-c3ncn(-c4cc(C(F)(F)F)cc(C(F)(F)F)c4)n3)cc2F)c1 [Compound J760, (Z)-1-(4-(1-(3,5-Bis(trifluoromethyl)phenyl)-1H-1,2,4-triazol-3-yl)-2-fluorophenyl)-3-(3-(5-methyl-2-((2,2,2-trifluoroethoxy)methyl)phenyl)-4-oxothiazolidin-2-ylidene)urea] | 50 to 100 | 0 to 50 |  | 
2 | CC(C)c1ccc(N(C)C)cc1N1C(=O)CS/C1=N\C(=O)Nc1ccc(-c2cn(-c3ccc(C(F)(F)F)cc3)cn2)cc1 [Compound J515, (Z)-1-(3-(5-(Dimethylamino)-2-isopropylphenyl)-4-oxothiazolidin-2-ylidene)-3-(4-(1-(4-(trifluoromethyl)phenyl)-1H-imidazol-4-yl)phenyl)urea] | 50 to 100 | 50 to 100 |  | 
3 | COC(c1ccc(C)cc1N1C(=O)CS/C1=N\C(=O)Nc1ccc(-c2cn(-c3ccc(OC(F)(F)F)cc3)nn2)cc1)C(F)(F)F (stereo not drawn) [Compound J494, (Z)-1-(3-(5-Methyl-2-(2,2,2-trifluoro-1-methoxyethyl)phenyl)-4-oxothiazolidin-2-ylidene)-3-(4-(1-(4-(trifluoromethoxy)phenyl)-1H-1,2,3-triazol-4-yl)phenyl)urea] | 50 to 100 | 50 to 100 |  | 
4 | CCOC(C)c1ccc(C)cc1N1C(=O)CS/C1=N\C(=O)Nc1ccc(-c2ncn(-c3ccc(S(F)(F)(F)(F)F)cc3)n2)cc1C(F)(F)F (stereo not drawn) [Compound J631, (Z)-1-(3-(2-(1-Ethoxyethyl)-5-methylphenyl)-4-oxothiazolidin-2-ylidene)-3-(4-(1-(4-(pentafluoro-λ^6-sulfaneyl)phenyl)-1H-1,2,4-triazol-3-yl)-2-(trifluoromethyl)phenyl)urea] | 50 to 100 | 50 to 100 |  | 
5 | CCOCc1ccc(C)cc1N1C(=O)CS/C1=N\C(=O)Nc1ccc(-c2ncn(-c3ccc(OC(F)(F)F)cc3)n2)cc1C [Compound J206, (Z)-1-(3-(2-(Ethoxymethyl)-5-methylphenyl)-4-oxothiazolidin-2-ylidene)-3-(2-methyl-4-(1-(4-(trifluoromethoxy)phenyl)-1H-1,2,4-triazol-3-yl)phenyl)urea] |  |  | 50 to 100 | 50 to 100
6 | COc1ccc(C(C)C)c(N2C(=O)CS/C2=N\C(=O)Nc2ccc(-c3ncn(-c4ccc(OC(F)(F)F)cn4)n3)cc2C(F)(F)F)c1 [Compound J277, (Z)-1-(3-(2-Isopropyl-5-methoxyphenyl)-4-oxothiazolidin-2-ylidene)-3-(4-(1-(5-(trifluoromethoxy)pyridin-2-yl)-1H-1,2,4-triazol-3-yl)-2-(trifluoromethyl)phenyl)urea] |  |  | 50 to 100 | 50 to 100
7 | COC(C)c1cc(C)ccc1N1C(=O)CS/C1=N\C(=O)Nc1ccc(-c2ncn(-c3ccc(C(F)(F)F)cn3)n2)cc1F (stereo not drawn) [Compound J300, (Z)-1-(2-Fluoro-4-(1-(5-(trifluoromethyl)pyridin-2-yl)-1H-1,2,4-triazol-3-yl)phenyl)-3-(3-(2-(1-methoxyethyl)-4-methylphenyl)-4-oxothiazolidin-2-ylidene)urea] |  |  | 50 to 100 | 50 to 100
8 | Cc1ccc(OCCC(F)(F)F)c(N2C(=O)CS/C2=N\C(=O)Nc2ccc(-c3ncn(-c4ccc(SC(F)(F)F)cc4)n3)cc2F)c1 [Compound J333, (Z)-1-(2-Fluoro-4-(1-(4-((trifluoromethyl)thio)phenyl)-1H-1,2,4-triazol-3-yl)phenyl)-3-(3-(5-methyl-2-(3,3,3-trifluoropropoxy)phenyl)-4-oxothiazolidin-2-ylidene)urea] |  |  | 50 to 100 | 50 to 100
9 | Cc1ccc(OCC(F)(F)F)c(N2C(=O)CS/C2=N\C(=O)Nc2ccc(-c3ncn(-c4ccc(C(F)(F)F)cc4)n3)cc2F)c1 [Compound J63, (Z)-1-(2-Fluoro-4-(1-(4-(trifluoromethyl)phenyl)-1H-1,2,4-triazol-3-yl)phenyl)-3-(3-(5-methyl-2-(2,2,2-trifluoroethoxy)phenyl)-4-oxothiazolidin-2-ylidene)urea] |  |  | 50 to 100 | 50 to 100
10 | Cc1ccc(COCC(F)(F)F)c(N2C(=O)CS/C2=N\C(=O)Nc2ccc(-c3ncn(-c4ccc(C(F)(F)F)cn4)n3)cc2F)c1 [Compound J281, (Z)-1-(2-Fluoro-4-(1-(5-(trifluoromethyl)pyridin-2-yl)-1H-1,2,4-triazol-3-yl)phenyl)-3-(3-(5-methyl-2-((2,2,2-trifluoroethoxy)methyl)phenyl)-4-oxothiazolidin-2-ylidene)urea] |  |  | 50 to 100 | 50 to 100
11 | CCCc1ccc(N(C)C)cc1N1C(=O)CS/C1=N\C(=O)Nc1ccc(-c2ncn(-c3ccc(OC(F)(F)F)cn3)n2)cc1C [Compound J254, (Z)-1-(3-(5-(Dimethylamino)-2-propylphenyl)-4-oxothiazolidin-2-ylidene)-3-(2-methyl-4-(1-(5-(trifluoromethoxy)pyridin-2-yl)-1H-1,2,4-triazol-3-yl)phenyl)urea] |  |  | 50 to 100 | 50 to 100
12 | Cc1ccc(COCC(F)(F)F)c(N2C(=O)CS/C2=N\C(=O)Nc2ccc(-c3ccn(-c4ccc(C(F)(F)F)cn4)n3)cc2C)c1 [Compound J310, (Z)-1-(3-(5-Methyl-2-((2,2,2-trifluoroethoxy)methyl)phenyl)-4-oxothiazolidin-2-ylidene)-3-(2-methyl-4-(1-(5-(trifluoromethyl)pyridin-2-yl)-1H-pyrazol-3-yl)phenyl)urea] |  |  | 50 to 100 | 50 to 100
13 | COc1cc(-c2ncn(-c3ccc(OC(F)(F)C(F)(F)F)cc3)n2)ccc1NC(=O)/N=C1\SCC(=O)N1c1cc(C)ccc1C(C)C [Compound J28, (Z)-1-(3-(2-Isopropyl-5-methylphenyl)-4-oxothiazolidin-2-ylidene)-3-(2-methoxy-4-(1-(4-(perfluoroethoxy)phenyl)-1H-1,2,4-triazol-3-yl)phenyl)urea] |  |  | 50 to 100 | 50 to 100
14 | Cc1ccc(C(C)C)c(N2C(=O)CS/C2=N\C(=O)Nc2ccc(-c3ncn(-c4ccc(C(F)(F)F)cn4)n3)cc2C(F)(F)F)c1 [Compound J301, (Z)-1-(3-(2-Isopropyl-5-methylphenyl)-4-oxothiazolidin-2-ylidene)-3-(2-(trifluoromethyl)-4-(1-(5-(trifluoromethyl)pyridin-2-yl)-1H-1,2,4-triazol-3-yl)phenyl)urea] |  |  | 50 to 100 | 50 to 100
15 | CCCc1ccc(C)cc1N1C(=O)CS/C1=N\C(=O)Nc1ccc(-c2ncn(-c3ccc(OC(F)(F)C(F)(F)F)cc3)n2)c(C)c1 [Compound J12, (Z)-1-(3-(5-Methyl-2-propylphenyl)-4-oxothiazolidin-2-ylidene)-3-(3-methyl-4-(1-(4-(perfluoroethoxy)phenyl)-1H-1,2,4-triazol-3-yl)phenyl)urea] |  |  | 50 to 100 | 50 to 100

Reference: US20230077362A1 (CORTEVA AGRISCIENCE LLC, priority 2019, published 2023)
